Columns and labels:
[1] = target: duplex hairpin d[[…]] (SEQ ID NO: 8); experiment: Surface plasmon resonance, immobilized duplex hairpin DNA; format: binding; conditions: SPR, 25° C., HEPES buffer containing 200 mM KCl
Experimental: (§1) Surface plasmon resonance (SPR) measurements were performed with a four-channel Biacore® 3000 optical biosensor system (Biacore International AB, Uppsala, Sweden). 5′-biotin labeled DNA was immobilized onto streptavidin-coated Biacore® SA sensor chips as previously described. See Lacy, E. R., et al., J. Amer. Chem. Soc., 124, 2153-2163 (2002); Mazur, S., et al., J. Mol. Biol., 300, 321-337 (2000); Nguyen, B., et al., Biopolymers, 63, 281-297 (2002); Wang, L., et at, Proc. Natl. Acad. Sci. USA, 97, 12-16 (2000); and Wang, L., et al., Biochemistry, 40, 2511-2521 (2001). Two flow cells were used to immobilize the
DNA oligomer samples, while a third cell was left blank as a control. […]
Solutions of known concentration of 8 ranging from 2 nM to 10 μM were injected through the flow cells until a constant steady-state response was obtained. […] The instrument response (RU) in the steady-state region was determined by linear averaging over a 50 second time span. The predicted maximum response per bound compound in the steady-state region (RUmax) was determined from the DNA molecular weight, the amount of DNA on the flow cell, the compound molecular weight, and the refractive index gradient ratio of the compound and DNA, as previously described. […]
(§2) Surface plasmon resonance (SPR) was used to quantitatively evaluate the interaction between 8 and human telomeric DNA. […]

human telomeric DNA = experiment: Thermal melting (ΔTm) of human telomeric DNA; format: binding; conditions: HEPES buffer containing 50 mM KCl monitored at 295 nm (data not shown)
[2] = test system: Trypanosoma brucei rhodesiense (T. b. r.); experiment: In vitro antiprotozoal activity against T. b. r.; format: cell-based
Experimental: (§3) In vitro antiprotozoal activities were measured following established protocols. […] E., et al., Bioorg.

[3] = test system: human telomeric sequence d[AG3(T2AG3)3] (SEQ ID NO: 1); experiment: Surface plasmon resonance, immobilized human telomeric DNA; format: binding
Experimental: as §1
DNA oligomer samples, while a third cell was left blank as a control. The SPR studies were performed at 25° C. in a filtered, degassed, 10 mM HEPES buffer (pH 7.4) containing 200 mM KCl, 3 mM EDTA and 0.005% surfactant P20 (Biacore International AB). Compound solutions were prepared by serial dilutions from stock solution and injected from 7-mm plastic vials with pierceable plastic crimp caps.
Solutions of known concentration of 8 ranging from 2 nM to 10 μM were injected through the flow cells until a constant steady-state response was obtained. […] The instrument response (RU) in the steady-state region was determined by linear averaging over a 50 second time span. The predicted maximum response per bound compound in the steady-state region (RUmax) was determined from the DNA molecular weight, the amount of DNA on the flow cell, the compound molecular weight, and the refractive index gradient ratio of the compound and DNA, as previously described. […] To obtain the binding constants, the data were fitted to a two-site equilibrium model using KaleidaGraph (Synergy Software, Reading, Pa., United States of America) for nonlinear least square optimization of the binding parameters, where RUmax is the maximum response per bound compound and K1 and K2 are the macroscopic binding constants for a two-site binding model: […]
as §2

[4] = test system: Plasmodium falciparum (P. f.); experiment: In vitro antiprotozoal activity against P. f.; format: cell-based; conditions: in vitro, read-out: P.f. (IC50)
Experimental: as §3

[5] = SPR, 25° C., HEPES buffer containing 200 mM KCl

## N=C(N)c1ccc(-c2ccc(-c3ccc(C(=N)N)o3)o2)cc1 [Compound 8, 5′-(4-Amidinophenyl)-2,2′-bifuran-5-carboxamidine]
[1]
  K, binding constant for the single site: 130000 M⁻¹
Human telomeric DNA
  ΔTm: approximately 10 °C
[2]
  IC50: 12 nM
[3]; SPR binding constants
  selectivity for the human telomeric quadruplex over the duplex DNA: approximately 4 fold
[3]; [5]
  K1, macroscopic binding constant, two-site model: 470000 M⁻¹
  K2, macroscopic binding constant, two-site model: 45000 M⁻¹
[4]
  IC50: 41.5 nM

Reference: patent US20100249175A1, “Dicationic compounds which selectively recognize G-quadruplex DNA” (priority 2005, published 2010)
